# Test system: RS4; 11 cell line
# Assay: CellTiter-Glo Luminescent Cell Viability Assay, cell growth inhibition
# Type: cell-based
# Conditions: Homo sapiens, 96 h, 4 days
# Experimental: Cell growth inhibitory activity of representative MDM2 protein degraders was determined using CellTiter-Glo® Luminescent Cell Viability Assay. Cells were seeded in 384-well white opaque cell culture plates at a density of 2,000 cells/well with serially diluted compounds and incubated at 37° C. in an atmosphere of 95% air and 5% CO2 for 4 days. Cell viability was determined using the CellTiter-Glo® Luminescent Cell Viability Assay Kit (Promega, Madison, WI) according to the manufacture's instruction. Briefly, a volume of CellTiter-Glo® Reagent equal to the volume of cell culture medium was added to each well, and then the plates were incubated at room temperature for 10-20 minutes. The luminescent signal was measured using a Tecan Infinite M1000 multimode microplate reader (Tecan, Morrisville, NC). The half maximal inhibitory concentration (IC50) was calculated using the GraphPad Prism 5 software (GraphPad Software, La Jolla, CA). Cpd. […] The structure of Cpd.
row,IC50 [nM],SMILES
1,12,"O=C1CCC(N2C(=O)c3cccc(NCCCCCNC(=O)c4ccc(NC(=O)[C@@H]5NC6(CCCCC6)[C@@]6(C(=O)Nc7cc(Cl)ccc76)[C@H]5c5cccc(Cl)c5F)cc4)c3C2=O)C(=O)N1 (stereo partly drawn) [Cpd. No. 10, (3′R,4'S,5′R)-6″-chloro-4′-(3-chloro-2-fluorophenyl)-N-(4-((5-((2-(2,6-dioxopiperidin-3-yl)-1,3-dioxoisoindolin-4-yl)amino)pentyl)carbamoyl)phenyl)-2″-oxodispiro[cyclohexane-1,2′-pyrrolidine-3′,3″-indoline]-5′-carboxamide]"
2,100,"O=C1CCC(N2C(=O)c3cccc(NCCCCCCCNC(=O)c4ccc(NC(=O)[C@@H]5NC6(CCCCC6)[C@@]6(C(=O)Nc7cc(Cl)ccc76)[C@H]5c5cccc(Cl)c5F)cc4)c3C2=O)C(=O)N1 (stereo partly drawn) [Cpd. No. 12, (3′R,4'S,5′R)-6″-chloro-4′-(3-chloro-2-fluorophenyl)-N-(4-((7-((2-(2,6-dioxopiperidin-3-yl)-1,3-dioxoisoindolin-4-yl)amino)heptyl)carbamoyl)phenyl)-2″-oxodispiro[cyclohexane-1,2′-pyrrolidine-3′,3″-indoline]-5′-carboxamide]"
3,7.4,"O=C1CCC(N2C(=O)c3cccc(NCCCOCCOCCOCCCNC(=O)c4ccc(NC(=O)[C@@H]5NC6(CCCCC6)[C@@]6(C(=O)Nc7cc(Cl)ccc76)[C@H]5c5cccc(Cl)c5F)nc4)c3C2=O)C(=O)N1 (stereo partly drawn) [Cpd. No. 25, (3′R,4'S,5′R)-6″-chloro-4′-(3-chloro-2-fluorophenyl)-N-(5-((3-(2-(2-(3-((2-(2,6-dioxopiperidin-3-yl)-1,3-dioxoisoindolin-4-yl)amino)propoxy)ethoxy)ethoxy)propyl)carbamoyl)pyridin-2-yl)-2″-oxodispiro[cyclohexane-1,2′-pyrrolidine-3′,3″-indoline]-5′-carboxamide]"
4,8,"O=C1CCC(N2C(=O)c3cccc(NCCOCCOCCNC(=O)c4ccc(NC(=O)[C@@H]5NC6(CCCCC6)[C@@]6(C(=O)Nc7cc(Cl)ccc76)[C@H]5c5cccc(Cl)c5F)cn4)c3C2=O)C(=O)N1 (stereo partly drawn) [Cpd. No. 26, (3′R,4'S,5′R)-6″-chloro-4′-(3-chloro-2-fluorophenyl)-N-(6-((2-(2-(2-((2-(2,6-dioxopiperidin-3-yl)-1,3-dioxoisoindolin-4-yl)amino)ethoxy)ethoxy)ethyl)carbamoyl)pyridin-3-yl)-2″-oxodispiro[cyclohexane-1,2′-pyrrolidine-3′,3″-indoline]-5′-carboxamide]"
5,4.6,"O=C1CCC(N2C(=O)c3cccc(NCCCOCCOCCOCCCNC(=O)c4ccc(NC(=O)[C@@H]5NC6(CCCCC6)[C@@]6(C(=O)Nc7cc(Cl)ccc76)[C@H]5c5cccc(Cl)c5F)cn4)c3C2=O)C(=O)N1 (stereo partly drawn) [Cpd. No. 27, (3′R,4'S,5′R)-6″-chloro-4′-(3-chloro-2-fluorophenyl)-N-(6-((3-(2-(2-(3-((2-(2,6-dioxopiperidin-3-yl)-1,3-dioxoisoindolin-4-yl)amino)propoxy)ethoxy)ethoxy)propyl)carbamoyl)pyridin-3-yl)-2″-oxodispiro[cyclohexane-1,2′-pyrrolidine-3′,3″-indoline]-5′-carboxamide]"
6,7,"O=C1CCC(N2Cc3c(NC(=O)CCCCNC(=O)c4ccc(NC(=O)[C@@H]5NC6(CCCCC6)[C@@]6(C(=O)Nc7cc(Cl)ccc76)[C@H]5c5cccc(Cl)c5F)cc4)cccc3C2=O)C(=O)N1 (stereo partly drawn) [Cpd. No. 28, (3′R,4'S,5′R)-6″-chloro-4′-(3-chloro-2-fluorophenyl)-N-(4-((5-((2-(2,6-dioxopiperidin-3-yl)-1-oxoisoindolin-4-yl)amino)-5-oxopentyl)carbamoyl)phenyl)-2″-oxodispiro[cyclohexane-1,2′-pyrrolidine-3′,3″-indoline]-5′-carboxamide]"

# — US12637473B2, “MDM2 protein degraders” (THE REGENTS OF THE UNIVERSITY OF MICHIGAN, priority 2016, dated 2026)
